From patent US8987195B2 (priority 2012, dated 2015) come the findings set out here.

One experiment relates to HCV genotype 1b replicon. Kind of experiment: HCV replicon assay, genotype 1b replicon EC50. The format is cell-based, Hepatitis C virus. The following applies: Hepatitis C virus, read-out: EC50 [gt-1b]. Summed up: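 Cells harbouring a stable replicon are grown under G418 selection, then plated with test compound in G418-free medium for 24-48 hours. After washing and lysis, RNA or luciferase signal is measured and expressed as percent of DMSO control to give EC50.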

Experiment [1] addresses HCV NS3/4A protease genotype 1b (Hepatitis C virus genotype 1b, UniProt P26663). Nature of the experiment: HCV NS3/4A protease time-resolved fluorescence (TRF) assay, Ki against genotype 1b. Format: biochemical. A digest of the protocol: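 Ki was converted from fitted IC50 using IC50=Ki(1+[S]/KM) and 25 nM substrate. Protease (genotype 1b 0.2 nM, A156T 0.4 nM, 3a 0.025 nM) and compound were pre-mixed 30 min in pH 7.5 HEPES/NaCl/glycerol/DTT buffer. Cleavage then proceeded 2.5 h at room temperature, detected by time-resolved europium fluorescence (340/615 nm).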

Setting [2] is: genotype 1b replicon, HCOOH salt.
Setting [3] is: IC50 [gt-1b] (nM), NS3/4A genotype 1b, enzyme 0.2 nM, HCOOH salt.
The mark [4] stands for this setting: IC50 [gt-1b] (nM), NS3/4A genotype 1b, enzyme 0.2 nM.
The mark [5] stands for this setting: IC50 [gt-1b] (nM), NS3/4A genotype 1b, enzyme 0.2 nM, K+ salt.

Where two headings read alike, the source gives them in different places.

In general, EC50 refers to the midpoint of the concentration-response curve. Broadly, the IC50 is the concentration needed to halve the response being measured. As for `COc1ccc2c3c(c(C4CC4)nc2c1)O[C@]1(CC3)C[C@H]2C(=O)N[C@]3(C(=O)NS(=O)(=O)C4(C)CC4)C[C@H]3/C=C\CCCCC[C@H](NC(=O)CC(C)(C)C)C(=O)N2C1` (single isomer, unassigned) [Example 279], the EC50 in the experiment with HCV genotype 1b replicon (setting [2]) amounted to 22.3 nM. Further, in experiment [1] (setting [3]), the IC50 came out at 0.051 nM.

As for `COc1ccc2nc(C(C)C)c3c(c2c1)CC[C@]1(C[C@H]2C(=O)N[C@]4(C(=O)NS(=O)(=O)C5(C)CC5)C[C@H]4/C=C\CCCCC[C@H](NC(=O)OC(C)(C)C)C(=O)N2C1)O3` [Example 2, tert-Butyl (2R,6S,13aS,14aR,16aS,Z)-5′-isopropyl-9′-methoxy-14a-(1-methylcyclopropylsulfonylcarbamoyl)-5,16-dioxo-1′,2′,3,5,6,7,8,9,10,11,13a,14,14a,15,16,16a-hexadecahydro-1H-spiro[cyclopropa[e]pyrrolo[1,2-a][1,4]diazacyclopentadecine-2,3′-pyrano[2,3-c]quinoline]-6-ylcarbamate], the EC50 with HCV genotype 1b replicon (genotype 1b replicon) came out at 1.19 nM. The molecule also had an IC50 in experiment [1] (setting [4]) of 0.012 nM.

Take `COc1ccc2c3c(c(C4CC4)nc2c1)O[C@]1(CC3)C[C@H]2C(=O)N[C@]3(C(=O)NS(=O)(=O)C4(C)CC4)C[C@H]3/C=C\CCCCC[C@H](NC(=O)OC3CCOC3)C(=O)N2C1` (stereo partly drawn) [Example 278, tetrahydrofuran-3-yl [(2R,6S,12Z,13aS,14aR,16aS)-5′-cyclopropyl-8′-methoxy-14a-{[(1-methylcyclopropyl)sulfonyl]carbamoyl}-5,16-dioxo-1,1′,2′,5,6,7,8,9,10,11,13a,14,14a,15,16,16a-hexadecahydrospiro[cyclopropa[e]pyrrolo[1,2-a][1,4]diazacyclopentadecine-2,3′-pyrano[2,3-c]quinolin]-6-yl]carbamate]: in the experiment with HCV genotype 1b replicon (setting [2]), the EC50 was found to be 12.4 nM. Besides, in experiment [1] (setting [3]), the IC50 came to 0.027 nM.

As to `Cc1nc2ccc(OC(F)(F)F)cc2c2c1O[C@]1(CC2)C[C@H]2C(=O)N[C@]3(C(=O)NS(=O)(=O)C4(C)CC4)C[C@H]3/C=C\CCCCC[C@H](NC(=O)OC(C)(C)C)C(=O)N2C1` [Example 1, tert-butyl (2R,6S,13aS,14aR,16aS,Z)-5′-methyl-14a-(1-methylcyclopropylsulfonylcarbamoyl)-5,16-dioxo-9′-(trifluoromethoxy)-1′,2′,3,5,6,7,8,9,10,11,13a,14,14a,15, 16,16a-hexadecahydro-1H-spiro[cyclopropa[e]pyrrolo[1,2-a][1,4]diazacyclopentadecine-2,3′-pyrano[2,3-c]quinoline]-6-ylcarbamate], the EC50 in the experiment on HCV genotype 1b replicon (genotype 1b replicon) was 1.47 nM. Further, half-maximal inhibition in experiment [1] (setting [4]) (IC50) required 0.013 nM.

For `COc1ccc2nc(C3CC3)c3c(c2c1)CC[C@]1(C[C@H]2C(=O)N[C@]4(C(=O)NS(=O)(=O)C5(C)CC5)C[C@H]4/C=C\CCCCC[C@H](NC(=O)OCC(C)(C)C)C(=O)N2C1)O3` [Example 153, 2,2-dimethylpropyl [(2R,6S,12Z,13aS,14aR,16aS)-5′-cyclopropyl-9′-methoxy-14a-{[(1-methylcyclopropyl)sulfonyl]carbamoyl}-5,16-dioxo-1,1′,2′,5,6,7,8,9,10,11,13a,14,14a,15,16,16a-hexadecahydrospiro[cyclopropa[e]pyrrolo[1,2-a][1,4]diazacyclopentadecine-2,3′-pyrano[2,3-c]quinolin]-6-yl]carbamate], the EC50 with HCV genotype 1b replicon (genotype 1b replicon, K+ salt) came to 1.86 nM. Further, the 50% inhibitory concentration (IC50) in experiment [1] (setting [5]) came out at 0.014 nM.

For the molecule `CC(C)(C)OC(=O)N[C@H]1CCCCC/C=C\[C@@H]2C[C@@]2(C(=O)NS(=O)(=O)C2(C)CC2)NC(=O)[C@@H]2C[C@]3(CCc4c(c(C(F)(F)F)nc5ccc(OCCN6CCOCC6)cc45)O3)CN2C1=O` [Example 7, tert-Butyl ((2R,6S,13aS,14aR,16aS,Z)-14a-(((1-methylcyclopropyl)sulfonyl)carbamoyl)-9′-(2-morpholinoethoxy)-5,16-dioxo-5′-(trifluoromethyl)-1′,2′,3,5,6,7,8,9,10, 11,13a,14,14a,15,16,16a-hexadecahydro-1H-spiro[cyclopropa[e]pyrrolo[1,2-a][1,4]diazacyclopentadecine-2,3′-pyrano[2,3-c]quinolin]-6-yl)carbamate], in the experiment with HCV genotype 1b replicon (genotype 1b replicon), the EC50 is 0.433 nM. In experiment [1] (setting [4]), this molecule came in with an IC50 of 0.02 nM.

As for `Cc1nc2ccccc2c2c1O[C@]1(CC2)C[C@H]2C(=O)N[C@]3(C(=O)NS(=O)(=O)C4(C)CC4)C[C@H]3/C=C\CCCCC[C@H](NC(=O)OC(C(F)(F)F)C(F)(F)F)C(=O)N2C1` [Example 258, 1,1,1,3,3,3-hexafluoropropan-2-yl [(2R,6S,12Z,13aS,14aR,16aS)-5′-methyl-14a-{[(1-methylcyclopropyl)sulfonyl]carbamoyl}-5,16-dioxo-1,1′,2′,5,6,7,8,9,10,11,13a,14,14a,15,16,16a-hexadecahydrospiro[cyclopropa[e]pyrrolo[1,2-a][1,4]diazacyclopentadecine-2,3′-pyrano[2,3-c]quinolin]-6-yl]carbamate], the EC50 with HCV genotype 1b replicon (genotype 1b replicon) turned out to be 717 nM. Also, in experiment [1] (setting [4]), inhibition was half-maximal at 0.022 nM (IC50).

Take `Cc1nc2cc(F)c(F)cc2c2c1O[C@]1(CC2)C[C@H]2C(=O)N[C@]3(C(=O)NS(=O)(=O)C4(C)CC4)C[C@H]3/C=C\CCCCC[C@H](NC(=O)OCC(C)(C)C)C(=O)N2C1` [Example 202, 2,2-dimethylpropyl [(2R,6S,12Z,13aS,14aR,16aS)-8′,9′-difluoro-5′-methyl-14a-{[(1-methylcyclopropyl)sulfonyl]carbamoyl}-5,16-dioxo-1,1′,2′,5,6,7,8,9,10,11,13a,14,14a,15,16,16a-hexadecahydrospiro[cyclopropa[e]pyrrolo[1,2-a][1,4]diazacyclopentadecine-2,3′-pyrano[2,3-c]quinolin]-6-yl]carbamate]: in the experiment with HCV genotype 1b replicon (genotype 1b replicon, K+ salt), the EC50 amounted to 1.43 nM. For the same molecule, the IC50 in experiment [1] (setting [5]) is 0.009 nM.

For the molecule `CC(C)(C)OC(=O)N[C@H]1CCCCC/C=C\[C@@H]2C[C@@]2(C(=O)NS(=O)(=O)C2(C)CC2)NC(=O)[C@@H]2C[C@]3(CCc4c(c(C(F)F)nc5ccc(Cl)cc45)O3)CN2C1=O` [Example 331, tert-butyl [(2R,6S,12Z,13aS,14aR,16aS)-9′-chloro-5′-(difluoromethyl)-14a-{[(1-methylcyclopropyl)sulfonyl]carbamoyl}-5,16-dioxo-1,1′,2′,5,6,7,8,9,10,11,13a,14,14a,15,16,16a-hexadecahydrospiro[cyclopropa[e]pyrrolo[1,2-a][1,4]diazacyclopentadecine-2,3′-pyrano[2,3-c]quinolin]-6-yl]carbamate], the EC50 in the experiment with HCV genotype 1b replicon (genotype 1b replicon) was found to be 6.71 nM. The same molecule registered a half-inhibitory concentration (IC50) in experiment [1] (setting [4]) of 0.01 nM.

For `COc1ccc2nc(C(F)(F)F)c3c(c2c1)[C@H](F)C[C@]1(C[C@H]2C(=O)N[C@]4(C(=O)NS(=O)(=O)C5(C)CC5)C[C@H]4/C=C\CCCCC[C@H](NC(=O)OCC(C)(C)C)C(=O)N2C1)O3` [Example 462, 2,2-dimethylpropyl [(1′R,2S,6S,12Z,13aS,14aR,16aS)-1′-fluoro-9′-methoxy-14a-{[(1-methylcyclopropyl)sulfonyl]carbamoyl}-5,16-dioxo-5′-(trifluoromethyl)-1,1′,2′,5,6,7,8,9,10,11,13a,14,14a,15,16,16a-hexadecahydrospiro[cyclopropa[e]pyrrolo[1,2-a][1,4]diazacyclopentadecine-2,3′-pyrano[2,3-c]quinolin]-6-yl]carbamate], the EC50 in the experiment with HCV genotype 1b replicon (HCV replicon, genotype 1b) stood at 5.75 nM. This molecule registered an IC50 in experiment [1] (IC50 [gt-1b], NS3/4A protease TRF assay, genotype 1b enzyme 0.2 nM) of 0.036 nM.

As to `CC(C)COC(=O)N[C@H]1CCCCC/C=C\[C@@H]2C[C@@]2(C(=O)NS(=O)(=O)C2(C)CC2)NC(=O)[C@@H]2C[C@]3(CCc4c(c(C5CC5)nc5ccccc45)O3)CN2C1=O` [Example 103, 2-methylpropyl [(2R,6S,12Z,13aS,14aR,16aS)-5′-cyclopropyl-14a-{[(1-methylcyclopropyl)sulfonyl]carbamoyl}-5,16-dioxo-1,1′,2′,5,6,7,8,9,10,11,13a,14,14a,15,16,16a-hexadecahydrospiro[cyclopropa[e]pyrrolo[1,2-a][1,4]diazacyclopentadecine-2,3′-pyrano[2,3-c]quinolin]-6-yl]carbamate], the EC50 in the experiment on HCV genotype 1b replicon (genotype 1b replicon) was 1.51 nM. The molecule also had an IC50 in experiment [1] (setting [4]) of 0.012 nM.

As for `Cc1nc2c(F)cccc2c2c1O[C@]1(CC2)C[C@H]2C(=O)N[C@]3(C(=O)NS(=O)(=O)C4CC4)C[C@H]3/C=C\CCCCC[C@H](NC(=O)OC(C)(C)C)C(=O)N2C1` [Example 107, tert-butyl {(2R,6S,12Z,13aS,14aR,16aS)-14a-[(cyclopropylsulfonyl)carbamoyl]-7′-fluoro-5′-methyl-5,16-dioxo-1,1′,2′,5,6,7,8,9,10,11,13a,14,14a,15,16,16a-hexadecahydrospiro[cyclopropa[e]pyrrolo[1,2-a][1,4]diazacyclopentadecine-2,3′-pyrano[2,3-c]quinolin]-6-yl}carbamate], the EC50 with HCV genotype 1b replicon (genotype 1b replicon) stood at 3.48 nM. In experiment [1] (setting [4]), it took 0.014 nM to reach half-maximal inhibition (IC50).

With `Cc1nc2ccccc2c2c1O[C@]1(CC2)C[C@H]2C(=O)N[C@]3(C(=O)NS(=O)(=O)C4(C)CC4)C[C@H]3/C=C\CCCCC[C@H](NC(=O)N3CCCC3)C(=O)N2C1` [Example 61, (2R,6S,12Z,13aS,14aR,16aS)-5′-methyl-N-[(1-methylcyclopropyl)sulfonyl]-5,16-dioxo-6-[(pyrrolidin-1-ylcarbonyl)amino]-1,1′,2′,6,7,8,9,10,11,13a,14,15,16,16a-tetradecahydrospiro[cyclopropa[e]pyrrolo[1,2-a][1,4]diazacyclopentadecine-2,3′-pyrano[2,3-c]quinoline]-14a(5H)-carboxamide], the EC50 in the experiment with HCV genotype 1b replicon (genotype 1b replicon) stood at 12.2 nM. This molecule gave an IC50 in experiment [1] (setting [4]) of 0.015 nM.
